How the values were obtained:
[1] = test system: NOD mice; assay: Insulitis score after tolerization of NOD mice; assay type: in vivo, mouse; details: examined at 12 weeks
[2] = test system: spleen cells of NOD mice; assay: Spleen cell proliferation (recall response to antigens) after tolerization of NOD mice; assay type: cell-based, mouse; details: tested at 12 weeks; for Spleen Cell Proliferation (SI ± SEM) GAD: recall antigen GAD; for Spleen Cell Proliferation (SI ± SEM) GAD Peptides #17: recall antigen GAD peptide #17; for Spleen Cell Proliferation (SI ± SEM) GAD Peptides #34: recall antigen GAD peptide #34; for Spleen Cell Proliferation (SI ± SEM) GAD Peptides #35: recall antigen GAD peptide #35; for Spleen Cell Proliferation (SI ± SEM) hsp Peptide: recall antigen hsp peptide; for Spleen Cell Proliferation (SI ± SEM) β-Gal: recall antigen β-Gal
Description: Incorporation of label was measured by liquid scintillation counting.

[3] = test system: IDDM associated autoantibodies in sera; assay: ELISA of sera on plate-bound human GAD65 peptides; assay type: binding; details: for number of IDDM (at risk, pre-IDDM, at onset) patients positive (X) for the peptide (unlabelled sum line): IDDM sera of Table 11
Outline: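 Blinded, coded sera (1/300) bound 1 h at 37 °C to wells coated overnight at 4 °C with peptides (20 ug/ml, pH 9.6), BSA-blocked. Detection with HRP-goat anti-human IgG (1/600), read at 410 nm; positive when sample/negative-control OD410 ≥3.0.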

[4] = test system: NOD mice; assay: GAD immunization of 8 week old NOD mice, IDDM onset; assay type: in vivo, mouse; details: 25 ug i.p. in IFA at 8 weeks, again every 6 weeks
Text: Breeder mice were purchased from Taconic Farms and housed under specific pathogen-free conditions. Only female NOD mice were used in this study. […] Insulitis is generally observed beginning at 4 weeks of age. […] The incidence of IDDM in female mice is 70-90% by one year of age.
Urine glucose levels were monitored twice weekly. After observing above normal glucose in urea, blood glucose levels were monitored twice weekly.

[5] = test system: autoantibodies to GAD in patient sera; assay: Immunoprecipitation of ^35S-GAD65 / ^35S-GAD67 by sera drawn prior to IDDM onset; assay type: binding, human; set-up: key to band intensity of immunoprecipitated ^35S-GAD: 1 = lowest; 2 = medium; 3 = highest band intensities
Description: Islet cells were extracted as previously described by Atkinson, et al. (Lancet, 335:1357-1360, 1990) with the following modifications. […] The protein A Sepharose CL-4B was then boiled in Laemmli sample buffer (Laemmli, Nature, 227:680-685, 1970), and the samples were subjected to SDS-PAGE and fluororadiography (Kodak, X-omat AR5) using Enhance (New England Nuclear). Alternatively, the autoradiographs were analyzed by a BETAGEN (Boston, Mass.) analyzer. Both 64KA positive and negative sera were used in each assay, to serve as interassay controls. All fluororadiographs were analyzed and rated as positive or negative after comparison with the known interassay controls. […] A similar rating procedure was employed for the intensity of bands corresponding to immunoprecipitated ^35S-GAD65 and ^35S-GAD67.
Rat GAD65 and GAD67 cDNAs were subcloned into a bacterial expression system as previously described. Labeling of ^35S-GADs was completed by pulsing IPTG induced bacterium (growing in Minimal Media) for 15 minutes with TRAN ^35S-label (ICN). Cultures were then spun down and resuspended and sonicated in 1 ml of homogenizing buffer (1 mM phenylmethylsulfonyl fluoride (PMSF), 1 mM 2-aminoethylisothiouronium Bromide (AET) and 60 mM potassium phosphate, pH 7.1). After sonication, cell debris was removed by centrifugation and protein concentration was measured (Bradford, Anal. Biochem., 72:248, […]) in the supernatant (supernatant was stored in aliquots at −70° C.).

[6] = Table 8B: neonatal i.p. with IFA
[7] = Table 8C: i.v. at three weeks of age
[8] = Pre-IDDM serum R.S. (1), 1/300 dilution
[9] = Pre-IDDM serum R.S. (2), 1/300 dilution
[10] = IDDM At Risk serum 052, 1/300 dilution
[11] = Pre-IDDM serum 723, 1/300 dilution
[12] = control serum S.M., 1/300 dilution

Molecule: EEILMHCQTTLKYAIKTGHP [Peptide 11]
- Insultis Score ([1]; Table 8B: neonatal female NOD mice, i.p. with IFA, scale 0-4): ≈2.5
- Spleen Cell Proliferation (SI ± SEM) GAD [2, 6]: 21.1 ± 2.2 SI
- Spleen Cell Proliferation (SI ± SEM) GAD Peptides #17 [2, 6]: 13.7 ± 1.5 SI
- Spleen Cell Proliferation (SI ± SEM) GAD Peptides #34 [2, 6]: 11.4 ± 1.5 SI
- Spleen Cell Proliferation (SI ± SEM) GAD Peptides #35 [2, 6]: 11.3 ± 0.7 SI
- Spleen Cell Proliferation (SI ± SEM) hsp Peptide [2, 6]: 13.3 ± 0.9 SI
- Spleen Cell Proliferation (SI ± SEM) β-Gal [2, 6]: 1.0 ± 0.1 SI
- Spleen Cell Proliferation (SI ± SEM) GAD [2, 7]: 12.1 ± 3.5 SI
- Spleen Cell Proliferation (SI ± SEM) GAD Peptides #17 [2, 7]: 6.9 ± 0.4 SI
- Spleen Cell Proliferation (SI ± SEM) GAD Peptides #34 [2, 7]: 6.4 ± 1.0 SI
- Spleen Cell Proliferation (SI ± SEM) GAD Peptides #35 [2, 7]: 6.8 ± 0.3 SI
- Spleen Cell Proliferation (SI ± SEM) hsp Peptide [2, 7]: 8.7 ± 0.9 SI
- Spleen Cell Proliferation (SI ± SEM) β-Gal [2, 7]: 1.4 ± 0.4 SI
- immunoreactivity of serum with GAD65 peptide ([3]; IDDM At Risk serum 825, 1/300 dilution): X (X = positive for immunoreactivity as defined by 00/background^3.0)
- immunoreactivity of serum with GAD65 peptide ([3]; IDDM At Risk serum L.I., 1/300 dilution): b (b = borderline response (00/background ?2.5-2.9).)
- number of IDDM (at risk, pre-IDDM, at onset) patients positive (X) for the peptide (unlabelled sum line) [3]: 2
- immunoreactivity of serum with GAD65 peptide ([3]; Pre-IDDM serum B.Y. (1), 1/300 dilution): X (X = positive for immunoreactivity as defined by 00/background^3.0)
- immunoreactivity of serum with GAD65 peptide ([3]; Pre-IDDM serum J.B. (1), 1/300 dilution): b (b = borderline response (00/background ?2.5-2.9).)
- immunoreactivity of serum with GAD65 peptide ([3]; Pre-IDDM serum J.B. (2), 1/300 dilution): b (b = borderline response (00/background ?2.5-2.9).)
- immunoreactivity of serum with GAD65 peptide [3, 8]: b (b = borderline response (00/background ?2.5-2.9).)
- immunoreactivity of serum with GAD65 peptide [3, 9]: b (b = borderline response (00/background ?2.5-2.9).)

Molecule: SFDRSTKVIDFHYPNELLQE [Peptide 9]
- immunoreactivity by both control and patient sera [3]: often positive
- number of control sera positive (X) for the peptide (unlabelled sum line) ([3]; 13 control sera): 2
- immunoreactivity of serum with GAD65 peptide ([3]; IDDM At Onset serum 048, 1/300 dilution): X (X = positive for immunoreactivity as defined by 00/background^3.0)
- immunoreactivity of serum with GAD65 peptide [3, 10]: b (b = borderline response (00/background ?2.5-2.9).)
- immunoreactivity of serum with GAD65 peptide ([3]; IDDM At Risk serum 356, 1/300 dilution): X (X = positive for immunoreactivity as defined by 00/background^3.0)
- number of IDDM (at risk, pre-IDDM, at onset) patients positive (X) for the peptide (unlabelled sum line) [3]: 3
- immunoreactivity of serum with GAD65 peptide [3, 11]: X (X = positive for immunoreactivity as defined by 00/background^3.0)
- immunoreactivity of serum with GAD65 peptide ([3]; Pre-IDDM serum P.T. (1), 1/300 dilution): b (b = borderline response (00/background ?2.5-2.9).)
- immunoreactivity of serum with GAD65 peptide ([3]; Pre-IDDM serum P.T. (2), 1/300 dilution): b (b = borderline response (00/background ?2.5-2.9).)
- immunoreactivity of serum with GAD65 peptide [3, 8]: b (b = borderline response (00/background ?2.5-2.9).)
- immunoreactivity of serum with GAD65 peptide [3, 9]: b (b = borderline response (00/background ?2.5-2.9).)
- immunoreactivity of serum with GAD65 peptide ([3]; control serum 4380, 1/300 dilution): b (b = borderline response (00/background ?2.5-2.9).)
- immunoreactivity of serum with GAD65 peptide ([3]; control serum 5620, 1/300 dilution): b (b = borderline response (00/background ?2.5-2.9).)
- immunoreactivity of serum with GAD65 peptide ([3]; control serum 5748, 1/300 dilution): b (b = borderline response (00/background ?2.5-2.9).)
- immunoreactivity of serum with GAD65 peptide ([3]; control serum A.P., 1/300 dilution): X (X = positive for immunoreactivity as defined by 00/background^3.0)
- immunoreactivity of serum with GAD65 peptide [3, 12]: X (X = positive for immunoreactivity as defined by 00/background^3.0)

Molecule: TNMFTYEIAPVFVLLEYVTL [Peptide 14]
- immunoreactivity of serum with GAD65 peptide [3, 10]: b (b = borderline response (00/background ?2.5-2.9).)

Molecule: VNFFRMVISNPAATHQDIDF [Peptide 37]
- immunoreactivity of serum with GAD65 peptide ([3]; IDDM At Onset serum 705, 1/300 dilution): X (X = positive for immunoreactivity as defined by 00/background^3.0)
- number of IDDM (at risk, pre-IDDM, at onset) patients positive (X) for the peptide (unlabelled sum line) [3]: 2
- immunoreactivity of serum with GAD65 peptide [3, 11]: X (X = positive for immunoreactivity as defined by 00/background^3.0)

Molecule: VPLQCSALLVREEGLMQNCNQ [Peptide 27]
- immunoreactivity of serum with GAD65 peptide [3, 12]: b (b = borderline response (00/background ?2.5-2.9).)

Molecule: β-Gal.: E. coli β-galactosidase, control antigen purified from recombinant bacteria [reference compound]
- Insultis Score ([1]; Table 8A: female NOD mice, i.v. at 3 weeks of age, 50 μg (hsp-p 0.1 μg) in PBS, scale 0-4, mean ± SE): 2.6 ± 0.6
- Spleen Cell Proliferation (SI ± SEM) CPH ([2]; Table 8A: i.v. at 3 weeks, recall antigen CPH): 11.5 ± 0.9 SI
- Spleen Cell Proliferation (SI ± SEM) GAD ([2]; Table 8A: i.v. at 3 weeks): 15.4 ± 1.8 SI
- Spleen Cell Proliferation (SI ± SEM) GAD Peptides #17 ([2]; Table 8A: i.v. at 3 weeks): 5.1 ± 0.6 SI
- Spleen Cell Proliferation (SI ± SEM) GAD Peptides #34 ([2]; Table 8A: i.v. at 3 weeks): 5.1 ± 0.6 SI
- Spleen Cell Proliferation (SI ± SEM) GAD Peptides #35 ([2]; Table 8A: i.v. at 3 weeks): 4.0 ± 0.2 SI
- Spleen Cell Proliferation (SI ± SEM) hsp Peptide ([2]; Table 8A: i.v. at 3 weeks): 6.6 ± 0.5 SI
- Spleen Cell Proliferation (SI ± SEM) β-Gal ([2]; Table 8A: i.v. at 3 weeks): 1.1 ± 0.1 SI
- mice that developed IDDM by 27 weeks in age [4]: 6/10
- mice remaining disease free at 52 weeks of age ([4]; 10 mice per group): 2

B1: GAD67: rat GAD67 expressed in bacteria, ^35S-labeled, in bacterial lysate (protein)
chain: MASSTPSPATSSNAGADPNTTNLRPTTYDTWCGVAHGCTRKLGLKICGFLQRTNSLEEKSRLVSAFRERQASKNLLSCENSDPGARFRRTETDFSNLFAQDLLPAKNGEEQTVQFLLEVVDILLNYVRKTFDRSTKVLDFHHPHQLLEGMEGFNLELSDHPESLEQILVDCRDTLKYGVRTGHPRFFNQLSTGLDIIGLAGEWLTSTANTNMFTYEIAPVFVLMEQITLKKMREIIGWSNKDGDGIFSPGGAISNMYSIMAARYKYFPEVKTKGMAAVPKLVLFTSEHSHYSIKKAGAALGFGTDNVILIKCNERGKIIPADLEAKILDAKQKGFVPLYVNATAGTTVYGAFDPIQEIADICEKYNLWLHVDAAWGGGLLMSRKHRHKLSGIERANSVTWNPHKMMGVLLQCSAILVKEKGILQGCNQMCAGYLFQPDKQYDVSYDTGDKAIQCGRHVDIFKFWLMWKAKGTVGFENQINKCLELAEYLYAKIKNREEFEMVFNGEPEHTNVCFWYIPQSLRGVPDSPERREKLHRVAPKIKALMMESGTTMVGYQPQGDKANFFRMVISNPAATQSDIDFLIEEIERLGQDL
- band intensity of immunoprecipitated ^35S-GAD ([5]; serum of patient eight, drawn 8 months before IDDM onset): 0
- band intensity of immunoprecipitated ^35S-GAD ([5]; serum of patient eleven, drawn 10 months before IDDM onset): 1
- band intensity of immunoprecipitated ^35S-GAD ([5]; serum of patient five, drawn 34 months before IDDM onset): 0
- band intensity of immunoprecipitated ^35S-GAD ([5]; serum of patient nine, drawn 42 months before IDDM onset): 0
- band intensity of immunoprecipitated ^35S-GAD ([5]; serum of patient one, drawn 9 months before IDDM onset): 1
- band intensity of immunoprecipitated ^35S-GAD ([5]; serum of patient seven, drawn 3 months before IDDM onset): 1
- band intensity of immunoprecipitated ^35S-GAD ([5]; serum of patient six, drawn 11 months before IDDM onset): 1
- band intensity of immunoprecipitated ^35S-GAD ([5]; serum of patient ten, drawn 25 months before IDDM onset): 1
- band intensity of immunoprecipitated ^35S-GAD ([5]; serum of patient three, drawn 14 months before IDDM onset): 0
- band intensity of immunoprecipitated ^35S-GAD ([5]; serum of patient twelve, drawn 4 months before IDDM onset): 0
- band intensity of immunoprecipitated ^35S-GAD ([5]; serum of patient two, drawn 6 months before IDDM onset): 2
- band intensity of immunoprecipitated ^35S-GAD ([5]; serum of patient, drawn 66 months before IDDM onset): 0

Reference: patent publication US8926966B1 (Regents of the University of California, priority 1990, dated 2015)
